Source: publication PMC7717600, “Novel [(N-alkyl-3-indolylmethylene)hydrazono]oxindoles arrest cell cycle and induce cell apoptosis by inhibiting CDK2 and Bcl-2: synthesis, biological evaluation and in silico studies” (Journal of Enzyme Inhibition and Medicinal Chemistry, 2020)
Read-outs that look alike come from different tables or passages of the source.

Columns and labels:
OVCAR-5 = test: cells; conditions: Homo sapiens
UO-31 = test: cells; conditions: Homo sapiens
SF-295 [1] = test: cells; conditions: Homo sapiens
OVCAR-4 = test: cells; conditions: Homo sapiens
MCF7 = test: cells; conditions: Homo sapiens
786-0 [2] = test: cells; conditions: Homo sapiens
CDK2 = CDK2 (Homo sapiens, UniProt P24941); test: CDK2 inhibition assay; type: biochemical; conditions: CDK2, mean ± SE of three
Experimental: and of the test compound in a final volume of 10 µL, all in a reaction buffer (60 mM HEPES-NaOH, pH 7.5, 3 mM MgCl2, 3 mM MnCl2, 3 μM Na-orthovanadate, 1.2 mM DTT, 2.5 μg / 50 μl PEG20.000). The reactions were stopped by adding 5 µL of 3 % aq. H3PO4. Aliquots were spotted onto P-81 phosphocellulose (Whatman), washed 3× with 0.5 % aq. H3PO4 and finally air-dried. Kinase inhibition was quantified using a FLA-7000 digital image analyzer (Fujifilm).

HL-60(TB) = test: cells; conditions: Homo sapiens
SF-295 [3] = conditions: for TGI: SF-295
SR [4] = test: cells; conditions: Homo sapiens
A498 [5] = test: cells; conditions: Homo sapiens
786-0 [6] = conditions: for TGI: 786-0
SNB-19 [7] = test: cells; conditions: Homo sapiens
EKVX = test: cells; conditions: Homo sapiens
KM12 = test: cells; conditions: Homo sapiens
RPMI-8226 = conditions: for TGI: RPMI-8226
BT-549 = test: cells; conditions: Homo sapiens
SR [8] = system: SR
SNB-19 [9] = conditions: for TGI: SNB-19
HT29 [10] = test: cells; conditions: Homo sapiens
UACC-62 = conditions: for TGI: UACC-62
A498 [11] = conditions: for TGI: A498
[12] = system: breast T-47D cancer cells; test: Cell cycle analysis by DNA flow cytometry; type: cell-based, human; conditions: 8a at GI50 concentration (0.41 µM), 24 h
Experimental: were washed twice with ice-cold phosphate buffered saline (PBS). Subsequently, the treated cells were collected by centrifugation, fixed in ice-cold 70% (v/v) ethanol, washed with PBS, re-suspended with 100 μg/mL RNase, stained with 40 μg/mL PI, and analyzed by flow cytometry using FACS Calibur (Becton Dickinson, BD, Franklin Lakes, NJ, USA). The cell cycle distributions were calculated using CellQuest software 5.1 (Becton Dickinson).

OVCAR-8 = test: cells; conditions: Homo sapiens
HT29 [13] = conditions: for TGI: HT29

CCCn1cc(C=NN=C2C(=O)Nc3ccc(C)cc32)c2ccccc21 [Compound 8a] showed a GI50 (OVCAR-5; OVCAR-5) of 4.04 µM, a CC50 (OVCAR-5; OVCAR-5, read-out: LC50) greater than 100 µM and a GI50 (UO-31; UO-31) of 2.28 µM. The CC50 (UO-31; UO-31, read-out: LC50) was greater than 100 µM, the GI50 (SF-295 [1]; SF-295) was 8.41 µM and the CC50 (SF-295 [1]; SF-295, read-out: LC50) was greater than 100 µM. The GI50 (OVCAR-4; OVCAR-4, OVCAR-4) was 0.935 µM, the CC50 (OVCAR-4; OVCAR-4, read-out: LC50) was greater than 100 µM and the GI50 (MCF7; MCF7) was 1.54 µM. It also gave a CC50 (MCF7; MCF7, read-out: LC50) greater than 100 µM, a GI50 (786-0 [2]; 786-0) of 5.94 µM and a CC50 (786-0 [2]; 786-0, read-out: LC50) greater than 100 µM. It also gave an IC50 (CDK2) of 0.85 ± 0.03 µM, a GI50 (HL-60(TB); HL-60) of 1.31 µM and a CC50 (HL-60(TB); HL-60, read-out: LC50) greater than 100 µM. For the same compound, the TGI (SF-295 [3]) was 96.6 µM, the GI % (SF-295 [3]; SF-295, 10 μM) was 29% and the “Growth Percent” value (SF-295 [3]; SF-295, 1.00E-5 Molar) was 71.12%. The TGI (SF-295 [3]; listed as D - 795311 / 1) was 9.66E-5 Molar, the GI50 (SR [4]) was 0.521 µM and the CC50 (SR [4]; read-out: LC50) was greater than 100 µM. For the same compound, the GI50 (A498 [5]; A498) was 1.37 µM, the CC50 (A498 [5]; A498, read-out: LC50) was greater than 100 µM and the TGI (786-0 [6]) was 71.20 µM. The GI % (786-0 [6]; 786-0, 10 μM) was 36%, the “Growth Percent” value (786-0 [6]; 786-0, 1.00E-5 Molar) was 64.53% and the TGI (786-0 [6]; listed as D - 795311 / 1) was 7.12E-5 Molar. For the same compound, the GI50 (SNB-19 [7]; SNB-19) was 4.24 µM, the CC50 (SNB-19 [7]; SNB-19, read-out: LC50) was greater than 100 µM and the GI50 (EKVX) was 2.36 µM. The CC50 (EKVX; read-out: LC50) was greater than 100 µM, the GI50 (KM12; KM12) was 3.22 µM and the CC50 (KM12; KM12, read-out: LC50) was greater than 100 µM. For the same compound, the TGI (RPMI-8226) was 3.96 µM, the GI % (RPMI-8226; RPMI-8226, 10 μM) was 125% and the “Growth Percent” value (RPMI-8226; RPMI-8226, 1.00E-5 Molar) was -24.86%. The TGI (RPMI-8226; listed as D - 795311 / 1) was 3.96E-6 Molar, the GI50 (BT-549; BT-549) was 1.79 µM and the CC50 (BT-549; BT-549, read-out: LC50) was greater than 100 µM. For the same compound, the GI50 (SR [8]) was 0.52 µM, the TGI (SR [8]) was 8.72 µM and the GI % (SR [8]; 10 μM) was 89%. The “Growth Percent” value (SR [8]; 1.00E-5 Molar) was 11.60%, the TGI (SR [8]; listed as D - 795311 / 1) was 8.72E-6 Molar and the TGI (SNB-19 [9]) was greater than 100 µM. For the same compound, the GI % (SNB-19 [9]; SNB-19, 10 μM) was 37%, the “Growth Percent” value (SNB-19 [9]; SNB-19, 1.00E-5 Molar) was 63.34% and the TGI (SNB-19 [9]; listed as D - 795311 / 1) was greater than 1.00E-4 Molar. The GI50 (HT29 [10]; HT-29) was 3.4 µM, the CC50 (HT29 [10]; HT-29, read-out: LC50) was greater than 100 µM and the TGI (UACC-62) was 12.10 µM. For the same compound, the GI % (UACC-62; UACC-62, 10 μM) was 60%, the “Growth Percent” value (UACC-62; UACC-62, 1.00E-5 Molar) was 40.39% and the TGI (UACC-62; listed as D - 795311 / 1) was 1.21E-5 Molar. For the same compound, the TGI (A498 [11]) was 7.50 µM, the GI % (A498 [11]; A498, 10 μM) was 43% and the “Growth Percent” value (A498 [11]; A498, 1.00E-5 Molar) was 57.21%. For the same compound, the TGI (A498 [11]; listed as D - 795311 / 1) was 7.50E-6 Molar, the “cell population in sub-G1 phase” value ([12]; control 1.25%) was 17.73% and the G2/M phase fraction ([12]; control 19.19%) was 34.05%. For the same compound, the GI50 (OVCAR-8; OVCAR-8) was 5.41 µM, the CC50 (OVCAR-8; OVCAR-8, read-out: LC50) was greater than 100 µM and the TGI (HT29 [13]) was greater than 100 µM. The GI % (HT29 [13]; HT29, 10 μM) was 83%, the “Growth Percent” value (HT29 [13]; HT29, 1.00E-5 Molar) was 17.08% and the TGI (HT29 [13]; listed as D - 795311 / 1) was greater than 1.00E-4 Molar.
